From the supplement of paper PMC10307832

Experiments:
Experiment in all cases: relative viability (nuclei count vs DMSO), 5 days (fraction); higher = more cells survive
ALW-II-49-7 + Trametinib = compound: Cc1ccc(C(=O)Nc2cccc(C(F)(F)F)c2)cc1Nc1cncc(C(N)=O)c1 [ALW-II-49-7] + CC(=O)Nc1cccc(-n2c(=O)n(C3CC3)c(=O)c3c(Nc4ccc(I)cc4F)n(C)c(=O)c(C)c32)c1 [Trametinib] (partner 0.02 µM)
How it was run: (§1)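 For relative viability, nuclei counts in treated wells were divided by those in vehicle wells. Lung cancer cell lines had been pin-tool dosed in 1536-well plates the day after seeding and cultured for 5 days, then fixed and stained in one step (final 0.05% Triton X-100, 1% formaldehyde, 1 ug/ml Hoechst) and imaged at 4×. Doses were one drug alone or a fixed anchor-drug dose plus five library-drug doses (not always all listed) in √10 steps, and values are duplicate-plate medians.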

ALW-II-49-7 + OSI-027 = compound: Cc1ccc(C(=O)Nc2cccc(C(F)(F)F)c2)cc1Nc1cncc(C(N)=O)c1 [ALW-II-49-7] + COc1cccc2cc(-c3nc([C@H]4CC[C@H](C(=O)O)CC4)n4ncnc(N)c34)[nH]c12 [OSI-027] (partner 0.5 µM)
How it was run: as §1

Dasatinib + Phenformin = compound: Cc1nc(Nc2ncc(C(=O)Nc3c(C)cccc3Cl)s2)cc(N2CCN(CCO)CC2)n1 [Dasatinib] + N=C(N)NC(=N)NCCc1ccccc1 [Phenformin] (partner 250 µM)
How it was run: as §1

Dasatinib + Olaparib = compound: Cc1nc(Nc2ncc(C(=O)Nc3c(C)cccc3Cl)s2)cc(N2CCN(CCO)CC2)n1 [Dasatinib] + O=C(c1cc(Cc2n[nH]c(=O)c3ccccc23)ccc1F)N1CCN(C(=O)C2CC2)CC1 [Olaparib] (partner 8 µM)
How it was run: as §1

Row | Cell Line | relative viability (ALW-II-49-7 + Trametinib; first compound 0.08 µM) | relative viability (ALW-II-49-7 + Trametinib; first compound 0.253 µM) | relative viability (ALW-II-49-7 + Trametinib; first compound 0.8 µM) | relative viability (ALW-II-49-7 + Trametinib; first compound 2.53 µM) | relative viability (ALW-II-49-7 + Trametinib; first compound 8 µM) | relative viability (ALW-II-49-7 + OSI-027; first compound 0.08 µM) | relative viability (ALW-II-49-7 + OSI-027; first compound 0.253 µM) | relative viability (ALW-II-49-7 + OSI-027; first compound 0.8 µM) | relative viability (ALW-II-49-7 + OSI-027; first compound 2.53 µM) | relative viability (ALW-II-49-7 + OSI-027; first compound 8 µM) | relative viability (Dasatinib + Phenformin; first compound 0.005 µM) | relative viability (Dasatinib + Phenformin; first compound 0.01581 µM) | relative viability (Dasatinib + Phenformin; first compound 0.05 µM) | relative viability (Dasatinib + Phenformin; first compound 0.1581 µM) | relative viability (Dasatinib + Phenformin; first compound 0.5 µM) | relative viability (Dasatinib + Olaparib; first compound 0.005 µM) | relative viability (Dasatinib + Olaparib; first compound 0.01581 µM) | relative viability (Dasatinib + Olaparib; first compound 0.05 µM) | relative viability (Dasatinib + Olaparib; first compound 0.1581 µM) | relative viability (Dasatinib + Olaparib; first compound 0.5 µM)
1 | HARA | 1.02 | 0.513 | 0.794 | 0.64 | 0.675 | 0.547 | 0.441 | 0.298 | 0.387 | 0.442 | 0.422 | 0.39 | 0.472 | 0.273 | 0.0965 | 0.822 | 0.625 | 0.517 | 0.186 | 0.188
2 | HCC-15 | 0.396 | 0.4 | 0.399 | 0.353 | 0.387 | 0.647 | 0.75 | 0.619 | 0.663 | 0.536 | 0.482 | 0.475 | 0.462 | 0.287 | 0.269 | 0.763 | 0.764 | 0.851 | 0.733 | 0.689
3 | HCC-44 | 1.08 | 0.994 | 1.03 | 1.09 | 1.26 | – | 0.743 | 0.325 | 0.533 | 0.414 | 0.202 | 0.283 | 0.179 | 0.139 | 0.113 | 1.03 | 0.958 | 1.11 | 1.13 | 0.986
4 | HCC-78 | 0.867 | 0.702 | 0.633 | 0.572 | 0.78 | 0.34 | 0.394 | – | 0.36 | 0.395 | 0.436 | 0.581 | 0.581 | 0.465 | 0.245 | 0.596 | 0.649 | 0.639 | 0.577 | 0.243
5 | HCC-366 | 0.33 | 0.361 | 0.404 | 0.275 | 0.288 | 0.977 | 1.17 | 0.731 | 0.985 | 0.627 | 0.606 | 0.571 | 0.484 | 0.426 | 0.336 | 0.263 | 0.206 | 0.217 | 0.157 | 0.141
6 | HCC-827 | 0.534 | 0.526 | 0.525 | 0.475 | 0.462 | 0.737 | 0.696 | 0.714 | 0.621 | 0.64 | 0.411 | 0.362 | 0.328 | 0.293 | 0.104 | 0.595 | 0.577 | 0.535 | 0.209 | 0.106
7 | HOP-62 | 0.389 | 0.364 | 0.402 | 0.452 | 0.465 | 0.768 | 0.96 | 0.875 | 0.721 | 0.608 | 0.687 | 0.608 | 0.704 | 0.569 | 0.281 | 0.32 | 0.381 | 0.307 | 0.434 | 0.204
8 | IA-LM | – | – | – | – | – | – | – | – | – | – | – | – | – | – | – | 1.06 | 0.537 | 0.904 | 0.706 | 0.6
9 | LC-2-ad | 0.94 | 0.917 | 0.881 | 0.858 | 0.945 | 0.733 | 0.843 | 0.783 | 0.73 | 0.771 | 0.636 | 0.623 | 0.411 | 0.306 | 0.265 | 0.752 | 0.666 | 0.746 | 0.573 | 0.516
10 | LCLC-97TM1 | 0.184 | 0.207 | 0.198 | 0.161 | 0.223 | 0.514 | 0.46 | 0.466 | 0.527 | 0.379 | 0.451 | 0.439 | 0.45 | 0.449 | 0.168 | 0.468 | 0.449 | 0.557 | 0.393 | 0.4
11 | LCLC-103H | 0.667 | 0.748 | 0.735 | 0.712 | 0.677 | 0.43 | 0.462 | 0.474 | 0.463 | 0.377 | 0.367 | 0.3 | 0.267 | 0.298 | 0.127 | 0.74 | 0.716 | 0.718 | 0.508 | 0.356
12 | LK-2 | 0.963 | 0.583 | 0.636 | – | 0.479 | 0.202 | 0.205 | 0.213 | – | 0.186 | 0.464 | 0.23 | 0.257 | 0.166 | 0.163 | 0.674 | 0.609 | 0.57 | 0.278 | 0.229
13 | NCI-H1299 | – | – | – | – | – | – | – | – | – | – | – | – | – | – | – | 0.959 | 0.983 | 0.998 | 0.639 | 0.297
14 | NCI-H1563 | – | – | – | – | – | 0.717 | 0.71 | 0.731 | 0.782 | 0.679 | 0.67 | 0.573 | 0.595 | 0.636 | 0.517 | – | – | – | – | –
15 | NCI-H1623 | – | – | – | – | – | 0.416 | 0.408 | 0.371 | 0.351 | 0.357 | 0.568 | 0.564 | 0.526 | 0.413 | 0.349 | – | – | – | – | –
16 | NCI-H1648 | 0.522 | 0.317 | 0.462 | 0.347 | 0.449 | 0.254 | 0.264 | 0.264 | 0.255 | 0.215 | – | – | – | – | – | 0.73 | 0.612 | 0.855 | 0.314 | 0.221
17 | NCI-H1703 | – | – | – | – | – | – | – | – | – | – | – | – | – | – | – | 0.287 | 0.25 | 0.144 | 0.147 | 0.148
